Where “and” joins values, the source holds several entries; their conditions need not be identical. Identical values can stand only once. Like-named read-outs stand apart in the source and are kept apart here.
Columns and labels:
Assay type in all cases: cell-based
human LHCGR = human LHCGR (Homo sapiens, UniProt P22888); test: HitHunter cAMP XS+ assay, cAMP Hunter cell line LHCGR; settings: for RLU: replicates (1),(2)
Description: (§1) Results are reported as raw RLU values and represent the
(§2) mean ± SEM of 2 technical replicates.

human TSHR = human TSHR (Homo sapiens, UniProt P16473); test: HitHunter cAMP XS+ assay, cAMP Hunter cell line TSHR; settings: for RLU: replicates (1),(2)
Sequence of human TSHR (P16473 21-764): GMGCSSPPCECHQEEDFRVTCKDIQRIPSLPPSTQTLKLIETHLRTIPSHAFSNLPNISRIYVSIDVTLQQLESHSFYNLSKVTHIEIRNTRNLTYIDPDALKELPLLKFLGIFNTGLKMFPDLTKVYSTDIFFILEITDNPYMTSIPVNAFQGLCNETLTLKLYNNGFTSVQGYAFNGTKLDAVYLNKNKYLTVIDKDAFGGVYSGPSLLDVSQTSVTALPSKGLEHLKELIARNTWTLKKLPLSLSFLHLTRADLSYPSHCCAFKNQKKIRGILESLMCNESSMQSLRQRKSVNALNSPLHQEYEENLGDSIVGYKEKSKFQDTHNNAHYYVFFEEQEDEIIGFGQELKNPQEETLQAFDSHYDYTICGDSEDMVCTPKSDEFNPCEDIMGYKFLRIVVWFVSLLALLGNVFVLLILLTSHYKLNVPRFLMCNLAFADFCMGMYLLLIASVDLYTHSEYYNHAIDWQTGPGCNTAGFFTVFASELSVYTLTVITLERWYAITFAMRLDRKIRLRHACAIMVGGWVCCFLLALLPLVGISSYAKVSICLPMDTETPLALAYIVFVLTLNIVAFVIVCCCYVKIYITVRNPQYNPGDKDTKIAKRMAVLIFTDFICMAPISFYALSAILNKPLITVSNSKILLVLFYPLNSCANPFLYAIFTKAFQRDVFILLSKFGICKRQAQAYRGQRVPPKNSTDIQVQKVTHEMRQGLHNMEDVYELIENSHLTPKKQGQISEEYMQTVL
Description: as §1, §2

WT RXFP2 = molecular target: T1, WT RXFP2 (Homo sapiens, UniProt Q8WXD0); test: HTRF cAMP assay in HEK293T cells transiently transfected with WT RXFP2; settings: for Emax: HEK-293T
T1 construct: FLAG (N); expressed in transfected cells; host or cells: HEK293T (transient)
T1 sequence (Q8WXD0 whole entry): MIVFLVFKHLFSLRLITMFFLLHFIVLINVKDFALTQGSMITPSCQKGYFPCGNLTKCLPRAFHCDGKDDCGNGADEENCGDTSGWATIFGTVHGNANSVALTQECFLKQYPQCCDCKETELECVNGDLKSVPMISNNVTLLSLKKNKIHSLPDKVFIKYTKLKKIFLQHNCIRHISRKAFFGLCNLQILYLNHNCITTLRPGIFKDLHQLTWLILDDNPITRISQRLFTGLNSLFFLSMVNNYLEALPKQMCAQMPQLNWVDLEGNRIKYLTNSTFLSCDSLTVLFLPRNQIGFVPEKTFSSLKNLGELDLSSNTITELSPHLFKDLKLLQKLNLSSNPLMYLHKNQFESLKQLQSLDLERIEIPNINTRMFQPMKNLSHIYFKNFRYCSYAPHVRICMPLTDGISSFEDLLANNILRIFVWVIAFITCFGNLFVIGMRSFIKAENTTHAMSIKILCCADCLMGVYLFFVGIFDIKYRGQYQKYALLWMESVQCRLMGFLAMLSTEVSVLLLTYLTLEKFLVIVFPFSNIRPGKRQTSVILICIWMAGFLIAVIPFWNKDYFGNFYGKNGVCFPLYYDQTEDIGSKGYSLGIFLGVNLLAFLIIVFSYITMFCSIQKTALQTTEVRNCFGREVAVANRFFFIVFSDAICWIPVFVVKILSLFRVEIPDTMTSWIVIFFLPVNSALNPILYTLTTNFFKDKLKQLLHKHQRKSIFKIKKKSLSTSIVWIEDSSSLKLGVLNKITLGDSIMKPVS
Experimental: Fig. 2 6641 is an allosteric agonist of RXFP2. a HEK-RXFP2 cells co-treated with serial dilutions of INSL3 B dimer antagonist and 30 nM INSL3 or 0.28 µM 6641. HTRF cAMP dose-response inhibition curves were normalized to activity without antagonist co-treatment as 0% inhibition. b HTRF cAMP assay in HEK293T cells transiently transfected with WT or chimeric receptors. Chimera RXFP2-1 contains the extracellular domain of RXFP2 and the transmembrane domain of RXFP1, while chimera RXFP1-2 contains the extracellular domain of RXFP1 and the transmembrane domain of RXFP2. For each receptor, cAMP response induced by INSL3 and 6641 was normalized to FSK (2 µM) as 100% efficacy and DMSO vehicle as 0% efficacy. Emax and EC50 were calculated using four parameter nonlinear fit dose-response curves. Results are expressed as mean ± SEM of 3 independent experiments. Diagrams of the chimeric receptors were produced using GPCRdb.org[58], [59].
Complementary RXFP2-1 and RXFP1-2 chimeric receptors were used to further investigate the involvement of the RXFP2 extracellular and transmembrane domains on 6641 activity. RXFP2-1 has the extracellular domain of RXFP2 and transmembrane domain of RXFP1, and RXFP1-2 is its complement.
The HTRF Gs dynamic cAMP assay kit (CisBio, Bedford, MA) was used to measure intracellular cAMP accumulation in HEK293T cells (ATCC, Manassas, VA)[56]. […] The cell stock was verified mycoplasma free and authenticated by ATCC. Transient transfection was accomplished by treating cells in a 6-well plate with a mixture of 2 μg plasmid and 6 μL Lipofectamine 2000 (Invitrogen, Waltham, MA) per manufacturer’s protocol and incubating overnight. For cAMP measurement in 96-well format, HEK293T cells stably transfected with human RXFP2 (HEK-RXFP2), human RXFP1 (HEK-RXFP1), mouse Rxfp1 (HEK-Rxfp1) or transiently transfected with human RXFP1-RXFP2 chimeric receptors were seeded between 7500 and 30,000 cells per well, depending on cell line responsiveness, in serum-free DMEM medium and incubated overnight at 37 °C, 5% CO2. After 18 h, cells were treated with a titration of compound, 2 μM forskolin, or DMSO vehicle. Control wells were also treated with a titration of INSL3 (Phoenix Pharmaceuticals, Burlingame, CA) or human recombinant relaxin 2 (Peprotech, Cranbury, NJ). For the RXFP2 antagonist experiment, cells were co-treated with 0.28 μM compound or 30 nM INSL3 and a titration of the INSL3 B dimer antagonist[38],[39]. For the INSL3 allosteric modulation experiment, cells were co-treated with 0.025, 0.0025, or 0.00025 μM of compound and a titration of INSL3. Cells were incubated for 1 h at 37 °C, 5% CO2, and then kit cAMP-d2 and anti-cAMP antibody were added per manufacturer protocol. Plates were incubated for 1 h at room temperature and the signal was read on a CLARIOstar plate reader (BMG Labtech, Ortenberg, Germany) at 665 and 620 nm emission wavelengths.

Sequence of human LHCGR (P22888 27-699): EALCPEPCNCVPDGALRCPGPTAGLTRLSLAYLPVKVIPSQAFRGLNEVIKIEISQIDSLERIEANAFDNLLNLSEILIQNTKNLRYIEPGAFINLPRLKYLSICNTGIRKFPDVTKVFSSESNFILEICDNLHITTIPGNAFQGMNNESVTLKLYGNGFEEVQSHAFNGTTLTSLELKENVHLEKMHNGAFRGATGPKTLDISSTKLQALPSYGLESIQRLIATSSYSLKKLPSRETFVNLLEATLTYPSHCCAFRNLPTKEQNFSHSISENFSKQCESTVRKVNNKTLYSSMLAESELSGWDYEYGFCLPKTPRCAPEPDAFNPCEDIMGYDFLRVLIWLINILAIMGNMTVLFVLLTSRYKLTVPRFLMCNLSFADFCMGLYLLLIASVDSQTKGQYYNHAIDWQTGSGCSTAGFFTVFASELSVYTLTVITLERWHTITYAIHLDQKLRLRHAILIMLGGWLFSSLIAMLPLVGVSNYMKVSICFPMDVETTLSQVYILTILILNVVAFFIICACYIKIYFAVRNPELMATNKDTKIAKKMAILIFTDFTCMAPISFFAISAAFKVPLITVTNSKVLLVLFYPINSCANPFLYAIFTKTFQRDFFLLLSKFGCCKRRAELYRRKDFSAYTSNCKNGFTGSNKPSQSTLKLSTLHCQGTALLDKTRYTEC

O=C1Nc2ccc(-c3cc(C(F)(F)F)cc(C(F)(F)F)c3)cc2C(=O)N2CCN(C(=O)COc3ccc(OC(F)(F)F)cc3I)C[C@@H]12 [compound 6641]
cAMP response through LHCGR (human LHCGR; Hit Hunter cAMP assay): did not result in an increase of cAMP level
RLU (human LHCGR; Log [M] -4.70): 1280 RLU and 1080 RLU
RLU (human LHCGR; Log [M] -5.18): 1000 RLU
RLU (human LHCGR; Log [M] -5.65): 1080 RLU and 1000 RLU
RLU (human LHCGR; Log [M] -6.13): 1080 RLU
RLU (human LHCGR; Log [M] -6.61): 1040 RLU
RLU (human LHCGR; Log [M] -7.08): 1200 RLU and 920 RLU
RLU (human LHCGR; Log [M] -7.56): 1000 RLU
RLU (human LHCGR; Log [M] -8.04): 960 RLU and 680 RLU
RLU (human LHCGR; Log [M] -8.52): 1040 RLU
RLU (human LHCGR; Log [M] -8.99): 960 RLU and 1040 RLU
cAMP response through TSHR (human TSHR; Hit Hunter cAMP assay): did not result in an increase of cAMP level
RLU (human TSHR; Log [M] -4.70): 1000 RLU and 1240 RLU
RLU (human TSHR; Log [M] -5.18): 1000 RLU and 1040 RLU
RLU (human TSHR; Log [M] -5.65): 960 RLU
RLU (human TSHR; Log [M] -6.13): 1040 RLU
RLU (human TSHR; Log [M] -6.61): 1200 RLU
RLU (human TSHR; Log [M] -7.08): 880 RLU
RLU (human TSHR; Log [M] -7.56): 920 RLU and 1000 RLU
RLU (human TSHR; Log [M] -8.04): 880 RLU
RLU (human TSHR; Log [M] -8.52): 1080 RLU and 920 RLU
RLU (human TSHR; Log [M] -8.99): 960 RLU and 1040 RLU
EC50 (WT RXFP2; 6641, individual experiments, read-out: EC50 (1)-(3)): 4.7 nM and 28 nM and 3.17 nM
EC50 (WT RXFP2; 6641, mean (± SEM) of 3, read-out: EC50 (AVERAGE)): 12 nM
Emax (WT RXFP2; individual experiments, FSK (2 µM) = 100% efficacy, DMSO = 0%, read-out: Emax (1)-(3)): 91.1%
Emax (WT RXFP2; mean (± SEM) of 3, FSK (2 µM) = 100% efficacy, read-out: Emax (AVERAGE)): 86.3%
Emax (1)-(3) (WT RXFP2; individual experiments, FSK (2 µM) = 100% efficacy, DMSO = 0%): 79.79% and 88%
